Where “and” joins values, the source holds several entries; their conditions need not be identical. Equal entries are not always repeated.
Assays:
[1] = system: Casemaking Clothes Moths (Tinea pellionella); test: Adult clothes moth repellency on treated woolen cloth (Example 5); assay type: in vivo; conditions: fabric soaked in 20 g/L in ethanol, 2 days after moth introduction; for Moths Present, Treated Section, Total (%) / Moths Present, Untreated Section, Total (%): share of moths found in the two boxes; for The Number of Moths Present, Treated Section / The Number of Moths Present, Untreated Section: single replicates (n = 50); for The Number of Moths Present, Treated Section, Total / The Number of Moths Present, Untreated Section, Total: total of 4 replicates
Protocol: The effectiveness of compound 2 (example 1) to reduce the presence of cloth moths on woolen cloth was determined and was directly compared to the repellency of the well known moth repellents Citronellol and Farnesol.
The study was conducted in an air conditioned laboratory at a temperature of 22°±2° C. under a normal day/night cycle, using Casemaking Clothes Moths (Tinea pellionella) of mixed sex and age. The study is conducted over a 5 days period and the repellent effectiveness was assessed as follows:
Adults—2 days after insect introduction
A 10 cm×10 cm square of black woolen fabric free of bactericide) was soaked in a solution of the candidate repellent in ethanol at 20 g/L, squeezed and allowed to dry. The woollen square was placed in a small box (5 cm×10 cm×10 cm) which was open at one end to allow entry of adult clothes moth.
A similar square of fabric treated with ethanol (control) was placed in another box of the same size.
These two boxes were placed in an aquarium and 50 mixed sex adult moths were added. These were provided with food and water and left for 5 days.
At the end of 2 days the number of adult moths in each box was counted.
The above was repeated 3 times to provide 4 replicates.

[2] = system: Black Ants (Ochetellus sp); test: Ant repellency on half-treated formica (Example 4); assay type: in vivo; conditions: ants, 20 mg/m^2 on formica
Protocol: The effectiveness of compound 2 (example 1) as an insect repellent was determined using ants exposed to a formica surface partially treated/partially untreated with compound 2, and was directly compared to the repellency of the well known insect repellents Farnesol and Dihydrofarnesal.
The study was conducted in an air conditioned laboratory at a temperature of 22°±2° C. under a normal day/night cycle, using Black Ants (Ochetellus sp) of mixed sex and age. The study ws conducted over a 3 day period and the repellent effectiveness assessed 1, 2 and 3 days after ant introduction.
One half of a rectangle of formica 40 cm×30 cm was treated at 20 mg/m^2 with the test compounds. This was achieved by soaking a paper wipe (Rag On A Roll approximately 20 cm×20 cm) in a solution of the test compound in ethanol, squeezing out the excess liquid and wiping over the surface to give the required coverage. This was checked by weighing the cloth after application. The surface was allowed to dry. The other half was wiped with ethanol alone (untreated surface).
The treated formica rectangle was placed on the bench and a glass ring (diameter 20 cm) was placed on the rectangle. This had been treated with fluon to prevent ant escape.
A small plastic container 2 cm in diameter was placed on the formica, one on the treated surface and one on the untreated surface. The plastic container placed on the treated surface had repellent applied in the same way as the treated formica. The plastic container on the untreated surface was wiped with ethanol.
24 hours after treatment (1 day) 20 ants were added to the centre of the formica. No food and water was supplied for these ants. 2 hours after this the number of ants on the treated and untreated surfaces was counted.
The above was repeated 3 times to provide a total of 4 replicates.
The above was repeated at 2 days and 3 days. New ants were used at each time period.

| SMILES | Moths Present, Treated Section, Total (%) [1] | Moths Present, Untreated Section, Total (%) [1] | The Number of Moths Present, Treated Section [1] | The Number of Moths Present, Untreated Section [1] | The Number of Moths Present, Treated Section, Total [1] | The Number of Moths Present, Untreated Section, Total [1] | Percentage Dead ([2]; 1 day after treatment) | Percentage Present, Treated Section ([2]; 1 day after treatment) | Percentage Present, Untreated Section ([2]; 1 day after treatment) | Percentage Dead ([2]; 2 days after treatment) | Percentage Present, Treated Section ([2]; 2 days after treatment) | Percentage Present, Untreated Section ([2]; 2 days after treatment) | Percentage Dead ([2]; 3 days after treatment) | Percentage Present, Treated Section ([2]; 3 days after treatment) | Percentage Present, Untreated Section ([2]; 3 days after treatment) | Percentage Dead, Average ([2]; average of days 1, 2 and 3) | Percentage Present, Untreated Section, Average ([2]; average of days 1, 2 and 3) |
| --- | --- | --- | --- | --- | --- | --- | --- | --- | --- | --- | --- | --- | --- | --- | --- | --- | --- |
| CC(C)=CCCC(C)CCO (centres unmarked) [Citronellol] | (23.9%) | (76.1%) | 7 and 0 and 5 and 14 | 20 and 12 and 26 and 25 | 26 | 83 | – | – | – | – | – | – | – | – | – | – | – |
| CC(C)=CCCC(C)=CCCC(C)=CCO [Farnesol, 3,7,11-Trimethyl-2,6,10-dodecatrien-1-ol] | (26.0%) | (74.0%) | 9 (2×) and 4 and 5 | 18 and 19 (2×) and 21 | 27 | 77 | 0% | 20.0% | 80.0% | 0% | 10.0% | 90.0% | 0% | 20.0% | 80.0% | 0% | 83.3% |
